Measured values: patent US20200352921A1, “ARYL-SULFONAMIDE AND ARYL-SULFONE DERIVATIVES AS TRPML MODULATORS” (CalyGene Biotechnolgy, Inc., priority 2017, published 2020)
Where two headings read alike, the source gives them in different places.

Tests used:
Format in all cases: cell-based
[1] = target: T1, ML1 channel (Homo sapiens, UniProt Q9GZU1); assay: Endolysosomal electrophysiology (whole-endolysosome patch-clamp)
T1 construct: host or cells: unnamed cells treated with vacuolin-1; isolated enlarged endolysosomes
T1 sequence (Q9GZU1 whole entry): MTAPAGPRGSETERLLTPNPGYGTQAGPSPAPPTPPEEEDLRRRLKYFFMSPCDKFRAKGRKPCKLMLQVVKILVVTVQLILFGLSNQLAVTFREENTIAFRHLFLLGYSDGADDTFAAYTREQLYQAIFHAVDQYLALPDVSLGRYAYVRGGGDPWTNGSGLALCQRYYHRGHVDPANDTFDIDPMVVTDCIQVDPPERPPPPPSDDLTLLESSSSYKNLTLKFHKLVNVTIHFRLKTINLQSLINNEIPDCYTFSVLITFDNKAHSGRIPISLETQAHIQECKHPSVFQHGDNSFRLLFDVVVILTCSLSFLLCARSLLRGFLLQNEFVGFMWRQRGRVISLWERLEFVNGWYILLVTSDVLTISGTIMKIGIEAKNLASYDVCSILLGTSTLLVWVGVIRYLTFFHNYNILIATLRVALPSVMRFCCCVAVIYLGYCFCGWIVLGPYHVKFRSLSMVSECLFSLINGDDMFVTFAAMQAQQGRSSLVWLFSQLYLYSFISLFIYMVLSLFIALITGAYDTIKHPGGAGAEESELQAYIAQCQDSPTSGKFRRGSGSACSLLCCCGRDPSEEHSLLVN
Experimental: Endolysosomal electrophysiology was performed in isolated endolysosomes using a modified patch-clamp method. Briefly, cells were treated with 1 μM vacuolin-1 for 2-5 h to increase the size of endosomes and lysosomes. Whole-endolysosome recordings were performed on isolated enlarged LELs. The bath (internal/cytoplasmic) solution contained 140 mM K-gluconate, 4 mM NaCl, 1 mM EGTA, 2 mM Na2-ATP, 2 mM MgCl2, 0.39 mM CaCl2), 0.2 mM GTP and 10 mM HEPES (pH adjusted with KOH to 7.2; free [Ca^2+]i˜100 nM based on the Maxchelator software (http://maxchelator.stanford.edu/)). The pipette (luminal) solution consisted of a ‘Low pH Tyrode's solution with 145 mM NaCl, 5 mM KCl, 2 mM CaCl2), 1 mM MgCl2, 10 mM HEPES, 10 mM MES and 10 mM glucose (pH 4.6). All bath solutions were applied via a perfusion system to achieve a complete solution exchange within a few seconds. Data were collected using an Axopatch 2A patch clamp amplifier, Digidata 1440 and pClamp 10.0 software (Axon Instruments). Whole-cell currents were digitized at 10 kHz and filtered at 2 kHz. All experiments were conducted at room temperature (21-23° C.), and all recordings were analyzed with pClamp 10.0 and Origin 8.0 (OriginLab, Northampton, Mass., USA). ML1 channel activity was induced by synthetic agonists ML-SA1 or […], and inhibited by ML-S13 or ML-S14.
In this electrophysiology assays, compounds were tested with both basal and agonist-induced ML1 currents. Examples B11, B11a, B11b, B40, B41, B44, B5, B47, B48, B49, B50, B51, B54, B57, B58, B59, B62, B63, B68, B69, B71, B72, B75, B75, and B76 were tested with basal ML1 currents. […] In particular, Examples B11, B11a and B11b inhibited basal ML1 currents with IC50<100 nM. Examples B11, B11a and B11b are shown below. Examples B1-4, B2-1, B-2-2, B2-3, B2-4, 3-4, B5, B6-2, B9-4, B-10, B-10-4, B11, B12, B13, B14, B15, B16, B18, B19, B20, B21, B22, B23, B25, B26, B27, B28, B29, B30, B32, B34, B40, B41, B44, B45, B46, B47, B48, B49, B50, B51, B52, B59, and B66 were tested in ML1 currents activated by ML1 agonists (ML-SA1 or ML-SA5). […] In particular, B11 inhibited the ML-SA1-activated currents with IC50<1,000 nM. Example B11 is shown below.

[2] = target: T2, ML1 (UniProt Q99J21); assay: Lysosomal Ca2+ imaging in Tet-On HEK-GCaMP3-ML1 cells; details: zero Ca2+ solution, ML-SA1 trigger, read-out: inhibition of ML-SA1-induced lysosomal Ca2+ release, IC50
T2 construct: fused on or other part: GCaMP3 (genetically encoded Ca2+ indicator) fused to ML1 as the reporter handle; in the published construct it sits at the N-terminus
Experimental: GCaMP3-ML1 expression was induced in Tet-On HEK-GCaMP3-ML1 cells 20-24 h prior to experiments using […] doxycycline. GCaMP3-ML1 fluorescence was monitored at an excitation wavelength of 470 nm (F470) using an EasyRatio Pro system (PTI). Cells were bathed in Tyrode's solution containing 145 mM NaCl, 5 mM KCl, 2 mM CaCl2), 1 mM MgCl2, 10 mM Glucose, and 20 mM Hepes (pH 7.4). Lysosomal Ca^2+ release was measured in a zero Ca^2+ solution containing 145 mM NaCl, 5 mM KCl, 3 mM MgCl2, 10 mM glucose, 1 mM EGTA, and 20 mM HEPES (pH 7.4). Ca^2+ concentration in the nominally free Ca^2+ solution is estimated to be 1-10 μM. With 1 mM EGTA, the free Ca^2+ concentration is estimated to be <10 nM based on the Maxchelator software (http://maxchelator.stanford.edu/). Experiments were carried out 0.5 to 6 hrs after plating. ML1-mediated lysosomal Ca^2+ release was triggered by synthetic agonists ML-SA1, and inhibited by ML-S13 and aforementioned testing compounds.

[3] = tested on: cultured parietal cells; assay: Gastric acid secretion assay (histamine-stimulated VAC formation)
Experimental: Acid secretion was measured in cultured parietal cells upon histamine stimulation. Briefly, after mucosal digestion of isolated glands, supernatants were pelleted by centrifugation at 200×g, washed three times with HEPES-MEM, and re-suspended in Medium A. Approximately 70% of the total gastric cells suspended in Medium A were parietal cells. The cells were plated onto Matrigel-coated 18-mm round coverslips or 35-mm dishes and incubated at 37° C. In cultured parietal cells, upon secretagogue stimulation, apical canalicular membranes are engulfed into the cell to form multiple actin-wrapped vacuoles known as vacuolar apical compartments (VACs), which remain separate from the basolateral membrane and free TVs in the cytosol (Nakada, S. L., Crothers, J. M., Jr., Machen, T. E., and Forte, J. G. (2012). Apical vacuole formation by gastric parietal cells in primary culture: effect of low extracellular Ca2+. American journal of physiology Cell physiology 303, C1301-1311.). […] In resting WT cells, small (diameter <2 μm) VACs were observed occasionally with a total surface area <10 μm^2. VACs formed within 10-20 min after bath application of histamine and then fused together to generate one or a few large VACs (up to 8 μm in diameter; total VAC surface area >50 μm^2). The apical membrane vacuole surface area during resting and stimulated states was measured for all VACs that were visible in multiple (3-6) Z-cross sections. Data were analyzed in ImageJ (NIH).
In this acid secretion assay, histamine-stimulated VAC formation was abolished by ML-S4 at 10 μM (Zhang X, Cheng X, Yu L, Yang J, Calvo R, Patnaik S, Hu X, Gao Q, Yang M, Lawas M, Delling M, Marugan J, Ferrer M, and Xu H. 2016, PMID: 27357649).

[4] = basal ML1 currents, isolated enlarged endolysosomes, read-out: inhibition of basal ML1 currents, IC50

| IC50 [1, 4] | IC50 [2] | IC50 ([1]; currents activated by ML1 agonist ML-SA1, read-out: inhibition of ML-SA1-activated ML1 currents, IC50) | SMILES | histamine-induced VAC formation ([3]; at 0.5 μM) | histamine-induced VAC formation ([3]; at 2 μM) |
| --- | --- | --- | --- | --- | --- |
| < 100 nM | < 1000 nM |  | Cc1ccc(S(=O)(=O)N2c3cc(F)ccc3CC[C@H]2CCc2ccc(Cl)cc2F)cc1 [Example B11b] | significantly inhibited | abolished |
| < 100 nM |  |  | Cc1ccc(S(=O)(=O)N2c3cc(F)ccc3CC[C@@H]2CCc2ccc(Cl)cc2F)cc1 [Example B11a] |  |  |
| < 100 nM |  | < 1000 nM | Cc1ccc(S(=O)(=O)N2c3cc(F)ccc3CCC2CCc2ccc(Cl)cc2F)cc1 (stereo not drawn) [Example B11, 2-(4-Chloro-2-fluorophenethyl)-7-fluoro-1-tosyl-1,2,3,4-tetrahydroquinoline] | significantly inhibited | abolished |
